Patent publication US20080207705A1, “Heteroaryl-Imidazole Derivatives as Cannabinoid CB1 Receptor Antagonists” (Green Cross Corporation, priority 2007, published 2008)
Where two headings read alike, the source gives them in different places.

Target: T1, rat CB-1 receptor (Rattus norvegicus, UniProt P20272)
T1 construct: The tissue obtained from the brain of SD rats was homogenized; from tissue; host or cells: brain of SD rats (membrane pellet of homogenate)
Assay: rat CB-1 receptor binding protocol with [3H]CP-55940

[1] = [3H]CP-55940, brain tissue of SD rats, 30 °C for 60 min, read-out: IC50

T1 sequence (P20272 whole entry): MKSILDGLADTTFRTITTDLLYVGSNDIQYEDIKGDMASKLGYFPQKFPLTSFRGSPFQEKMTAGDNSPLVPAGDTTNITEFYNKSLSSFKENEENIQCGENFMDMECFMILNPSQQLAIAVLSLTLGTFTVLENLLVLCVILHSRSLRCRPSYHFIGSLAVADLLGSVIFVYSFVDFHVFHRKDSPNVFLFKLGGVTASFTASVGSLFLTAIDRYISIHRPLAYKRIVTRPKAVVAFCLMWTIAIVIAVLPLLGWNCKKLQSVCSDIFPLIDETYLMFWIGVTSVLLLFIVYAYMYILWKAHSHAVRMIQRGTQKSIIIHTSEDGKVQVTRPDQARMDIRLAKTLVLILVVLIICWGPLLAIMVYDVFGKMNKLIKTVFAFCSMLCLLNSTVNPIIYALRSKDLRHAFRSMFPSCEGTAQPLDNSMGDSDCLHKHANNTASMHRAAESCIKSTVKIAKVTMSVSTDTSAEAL

Compound	IC50 [1] [nM]	IC50 [nM]
Cc1c(-c2nnc(C(C)c3ccccc3)o2)nc(-c2ccc(Cl)cc2Cl)n1-c1ccc(Cl)cc1 (centres unmarked) [Example 11, 2-(1-(4-Chlorophenyl)-2-(2,4-dichlorophenyl)-5-methyl-1H-imidazol-4-yl)-5-(1-phenylethyl)-1,3,4-oxadiazole]		31.4
CCc1c(-c2nnc(C(C)(C)C)s2)nc(-c2ccc(Cl)cc2Cl)n1-c1ccc(Cl)cc1 [Example 104, 2-tert-Butyl-5-(1-(4-chlorophenyl)-2-(2,4-dichlorophenyl)-5-ethyl-1H-imidazol-4-yl)-1,3,4-thiadiazole]	15.8	
Cc1c(-c2ncc(CC(C)C)s2)nc(-c2ccc(Cl)cc2Cl)n1-c1ccc(Cl)cc1 [Example 197, 2-(1-(4-Chlorophenyl)-2-(2,4-dichlorophenyl)-5-methyl-1H-imidazol-4-yl)-5-isobutylthiazole]	46.4	
Cc1c(-c2nnc(C3(c4ccc(Cl)cc4)CC3)s2)nc(-c2ccc(Cl)cc2Cl)n1-c1ccc(Br)cc1 [Example 138, 2-(1-(4-Bromophenyl)-2-(2,4-dichlorophenyl)-5-methyl-1H-imidazol-4-yl)-5-(1-(4-chlorophenyl)cyclopropyl)-1,3,4-thiadiazole]	18.5	
CCCc1c(-c2nnc(C3(c4ccccc4)CC3)s2)nc(-c2ccc(Cl)cc2Cl)n1-c1ccc(Br)cc1 [Example 121, 2-(1-(4-Bromophenyl)-2-(2,4-dichlorophenyl)-5-propyl-1H-imidazol-4-yl)-5-(1-phenylcyclopropyl)-1,3,4-thiadiazole]	13.2	
CCc1c(-c2nnc(C3(C(F)(F)F)CC3)o2)nc(-c2ccccc2Cl)n1-c1ccc(Br)cc1 [Example 56, 2-(1-(4-Bromophenyl)-2-(2-chlorophenyl)-5-ethyl-1H-imidazol-4-yl)-5-(1-(trifluoromethyl)cyclopropyl)-1,3,4-oxadiazole]	20.1	
CC(C)(C)c1nnc(-c2nc(-c3ccccc3Cl)n(-c3ccc(Br)cc3)c2Cn2cncn2)s1 [Example 168, 2-(5-((1H-1,2,4-Triazol-1-yl)methyl)-1-(4-bromophenyl)-2-(2-chlorophenyl)-1H-imidazol-4-yl)-5-tert-butyl-1,3,4-thiadiazole]		4.01
CC(C)(C)c1nnc(-c2nc(-c3ccc(Cl)cc3Cl)n(-c3ccc(Br)cc3)c2Cn2cncn2)s1 [Example 164, 2-(5-((1H-1,2,4-Triazol-1-yl)methyl)-1-(4-bromophenyl)-2-(2,4-dichlorophenyl)-1H-imidazol-4-yl)-5-tert-butyl-1,3,4-thiadiazole]	20.9	
CCc1c(-c2nnc(C3(c4ccc(Cl)cc4Cl)CC3)o2)nc(-c2ccc(Cl)cc2Cl)n1-c1ccc(Br)cc1 [Example 44, 2-(1-(4-Bromophenyl)-2-(2,4-dichlorophenyl)-5-ethyl-1H-imidazol-4-yl)-5-(1-(2,4-dichlorophenyl)cyclopropyl)-1,3,4-oxadiazole]		8.05

Continued by falling IC50 [1], values first:

IC50 [1] [nM]	Compound	IC50 [nM]
13.1	Cc1c(-c2ncc(CC(C)C)o2)nc(-c2ccc(Cl)cc2Cl)n1-c1ccc(Cl)cc1 [Example 184, 2-(1-(4-Chlorophenyl)-2-(2,4-dichlorophenyl)-5-methyl-1H-imidazol-4-yl)-5-isobutyloxazole]	
12.9	CCCCC(C)c1nnc(-c2nc(-c3ccc(Cl)cc3Cl)n(-c3ccc(Cl)cc3)c2C)o1 (centres unmarked) [Example 6, 2-(1-(4-Chlorophenyl)-2-(2,4-dichlorophenyl)-5-methyl-1H-imidazol-4-yl)-5-(hexan-2-yl)-1,3,4-oxadiazole]	
10.3	CCc1c(-c2nnc(C3(c4ccc(Cl)cc4)CC3)o2)nc(-c2ccccc2Cl)n1-c1ccc(Br)cc1 [Example 58, 2-(1-(4-Bromophenyl)-2-(2-chlorophenyl)-5-ethyl-1H-imidazol-4-yl)-5-(1-(4-chlorophenyl)cyclopropyl)-1,3,4-oxadiazole]	
8.29	CCc1c(-c2nnc(C3(c4ccccc4)CC3)s2)nc(-c2ccc(Cl)cc2Cl)n1-c1ccc(Br)cc1 [Example 117, 2-(1-(4-Bromophenyl)-2-(2,4-dichlorophenyl)-5-ethyl-1H-imidazol-4-yl)-5-(1-phenylcyclopropyl)-1,3,4-thiadiazole]	
7.94	CCCc1c(-c2nnc(C(C)(C)C)s2)nc(-c2ccc(Cl)cc2Cl)n1-c1ccc(Cl)cc1 [Example 125, 2-tert-Butyl-5-(1-(4-chlorophenyl)-2-(2,4-dichlorophenyl)-5-propyl-1H-imidazol-4-yl)-1,3,4-thiadiazole]	
7.54	CC(C)c1c(-c2nnc(C3(c4ccccc4)CC3)s2)nc(-c2ccc(Cl)cc2Cl)n1-c1ccc(Cl)cc1 [Example 118, 2-(1-(4-Chlorophenyl)-2-(2,4-dichlorophenyl)-5-isopropyl-1H-imidazol-4-yl)-5-(1-phenylcyclopropyl)-1,3,4-thiadiazole]	
6.74	CCc1c(-c2nnc(C3(C(F)(F)F)CCC3)s2)nc(-c2ccc(Cl)cc2Cl)n1-c1ccc(Br)cc1 [Example 140, 2-(1-(4-Bromophenyl)-2-(2,4-dichlorophenyl)-5-ethyl-1H-imidazol-4-yl)-5-(1-(trifluoromethyl)cyclobutyl)-1,3,4-thiadiazole]	
5.81	Cc1c(-c2nnc(C(C)(C)C)o2)nc(-c2ccc(Cl)cc2Cl)n1-c1ccc(Br)cc1 [Example 20, 2-(1-(4-Bromophenyl)-2-(2,4-dichlorophenyl)-5-methyl-1H-imidazol-4-yl)-5-tert-butyl-1,3,4-oxadiazole]	
4.48	CCCc1c(-c2nnc(C3(c4ccc(Cl)cc4)CC3)s2)nc(-c2ccc(Cl)cc2Cl)n1-c1ccc(Br)cc1 [Example 123, 2-(1-(4-Bromophenyl)-2-(2,4-dichlorophenyl)-5-propyl-1H-imidazol-4-yl)-5-(1-(4-chlorophenyl)cyclopropyl)-1,3,4-thiadiazole]	
1.91	CCc1c(-c2nnc(C(C)(C)C)s2)nc(-c2ccc(Cl)cc2Cl)n1-c1ccc(Br)cc1 [Example 110, 2-(1-(4-Bromophenyl)-2-(2,4-dichlorophenyl)-5-ethyl-1H-imidazol-4-yl)-5-tert-butyl-1,3,4-thiadiazole]	
1.79	CCCc1c(-c2nnc(C3(c4ccc(Cl)cc4)CCC3)s2)nc(-c2ccc(Cl)cc2Cl)n1-c1ccc(Br)cc1 [Example 124, 2-(1-(4-Bromophenyl)-2-(2,4-dichlorophenyl)-5-propyl-1H-imidazol-4-yl)-5-(1-(4-chlorophenyl)cyclobutyl)-1,3,4-thiadiazole]	
